Results: patent US20070128217A1 (priority 2003, published 2007)

How the values were obtained:
[1] = tested on: antibodies in sera from SARS patients (sera 1a, 1b, 2, 6, 37, 62, London, SARS-yellow, SARS-green); assay type: binding, human; design: Binding of serum 6 to linear peptides of protein X1 of SARS-CoV Urbani / Binding of serum 37 to linear peptides of protein X1 of SARS-CoV Urbani / Binding of serum 6 to looped/cyclic peptide (PEPSCAN-ELISA) / Binding of serum 37 to looped/cyclic peptide (PEPSCAN-ELISA) / Binding of serum 37 to looped/cyclic peptides of protein X1 of SARS-CoV Urbani / Binding of serum 6 to linear peptides of protein X2 / Binding of serum 37 to linear peptides of protein X2 / Binding of serum 37 to looped/cyclic peptides of protein X2 of SARS-CoV Urbani / Binding of serum 6 to linear peptides of protein M of SARS-CoV Urbani / Binding of serum 37 to linear peptides of protein M of SARS-CoV Urbani / Binding of serum 6 to looped/cyclic peptides of protein M of SARS-CoV Urbani / Binding of serum 37 to looped/cyclic peptides of protein M of SARS-CoV Urbani / Binding of serum 6 to linear peptides of protein X3 of SARS-CoV Urbani / Binding of serum 37 to linear peptides of protein X3 of SARS-CoV Urbani / Binding of serum 37 to looped/cyclic peptides of protein X3 of SARS-CoV Urbani / Binding of serum 6 to linear peptides of protein X4 of SARS-CoV Urbani / Binding of serum 37 to linear peptides of protein X4 of SARS-CoV Urbani / Binding of serum 37 to looped/cyclic peptides of protein X4 of SARS-CoV Urbani / Binding of serum 6 to linear peptides of protein X5 of SARS-CoV Urbani / Binding of serum 37 to linear peptides of protein X5 of SARS-CoV Urbani / Binding of serum 37 to looped/cyclic peptides of protein X5 of SARS-CoV Urbani / Binding of serum 6 to linear peptides of protein N of SARS-CoV Urbani / Binding of serum 37 to linear peptides of protein N of SARS-CoV Urbani / Binding of serum 6 to linear peptide (PEPSCAN-ELISA) / Binding of serum 1a to looped/cyclic peptides of protein N of SARS-CoV Urbani / Binding of serum 1b to looped/cyclic peptides of protein N of SARS-CoV Urbani / Binding of serum 2 to looped/cyclic peptides of protein N of SARS-CoV Urbani / Binding of serum 6 to looped/cyclic peptides of protein N of SARS-CoV Urbani / Binding of serum 37 to looped/cyclic peptides of protein N of SARS-CoV Urbani / Binding of serum 62 to looped/cyclic peptides of protein N of SARS-CoV Urbani / Binding of serum London to looped/cyclic peptides of protein N of SARS-CoV Urbani / Binding of serum SARS-green to looped/cyclic peptides of protein N of SARS-CoV Urbani: unit not given here
[2] = tested on: control sera (pooled serum of ten healthy LUMC hospital workers; commercial negative donor pooled serum from the Dutch bloodbank); assay type: binding, human; design: Binding of Control serum LUMC to linear peptides / Binding of Control serum Blood-bank to linear peptides / Binding of Control serum LUMC to looped peptides / Binding of Control Serum Blood-Bank to Looped peptides / Binding of Control serum LUMC to linear peptides of the protein M of SARS-CoV Urbani / Binding of Control serum Blood-bank to linear peptides of the protein M of SARS-CoV Urbani / Binding of Control serum LUMC to looped peptides of the protein M of SARS-CoV Urbani / Binding of Control Serum Blood-Bank to Looped peptides of the protein M of SARS-CoV Urbani: unit not given here
[3] = tested on: rabbit serum obtained by immunizing a rabbit with the SARS-CoV strain Frankfurt 1; assay type: binding; design: Binding of a rabbit serum to linear peptides / Binding of a rabbit serum to looped peptides / Rabbit serum linear peptides / Rabbit serum looped peptides / Binding of a rabbit serum to linear peptides of protein N of SARS-CoV Urbani (Rabbit serum linear peptides) / Binding of a rabbit serum to looped/cyclic peptides of protein N of SARS-CoV Urbani (Rabbit serum looped peptides): unit not given here

TIVTRPLMESELVIG
Binding of serum 1a to linear peptides of protein M of SARS-CoV Urbani [1]: 0.8 | Binding of serum 1b to linear peptides of protein M of SARS-CoV Urbani [1]: 0.6 | Binding of serum 2 to linear peptides of protein M of SARS-CoV Urbani [1]: 0.6 | Binding of serum 6 to linear peptides of protein M of SARS-CoV Urbani [1]: 0.4 | Binding of serum 37 to linear peptides of protein M of SARS-CoV Urbani [1]: 0.7 | Binding of serum 62 to linear peptides of protein M of SARS-CoV Urbani [1]: 0.9 | Binding of serum London to linear peptides of protein M of SARS-CoV Urbani [1]: 0.3 | Binding of serum SARS-green to linear peptides of protein M of SARS-CoV Urbani [1]: 0.3 | Binding of serum SARS-yellow to linear peptides of protein M of SARS-CoV Urbani [1]: 0.1 | Recognition of the peptide by sera of SARS-CoV infected individuals, and form (linear, looped/cyclic) in which it is recognized [1]: recognized in looped/cyclic form | Binding of Control Serum Blood-Bank to Looped peptides of the protein M of SARS-CoV Urbani [2]: 0.9 | Binding of Control serum Blood-bank to linear peptides of the protein M of SARS-CoV Urbani [2]: 0.8 | Binding of Control serum LUMC to linear peptides of the protein M of SARS-CoV Urbani [2]: 0.5 | Binding of Control serum LUMC to looped peptides of the protein M of SARS-CoV Urbani [2]: 1.0 | Rabbit serum linear peptides [3]: 0.3 | Rabbit serum looped peptides [3]: 0.3

GLMWLSYFVASFRLF
Binding of serum 1a to linear peptides of protein M of SARS-CoV Urbani [1]: 0.7 | Binding of serum 1a to looped/cyclic peptides of protein M of SARS-CoV Urbani [1]: 0.6 | Binding of serum 1b to linear peptides of protein M of SARS-CoV Urbani [1]: 0.4 | Binding of serum 1b to looped/cyclic peptides of protein M of SARS-CoV Urbani [1]: 0.2 | Binding of serum 2 to linear peptides of protein M of SARS-CoV Urbani [1]: 0.4 | Binding of serum 2 to looped/cyclic peptides of protein M of SARS-CoV Urbani [1]: 0.6 | Binding of serum 6 to linear peptides of protein M of SARS-CoV Urbani [1]: 0.6 | Binding of serum 6 to looped/cyclic peptides of protein M of SARS-CoV Urbani [1]: 0.8 | Binding of serum 37 to linear peptides of protein M of SARS-CoV Urbani [1]: 0.5 | Binding of serum 37 to looped/cyclic peptides of protein M of SARS-CoV Urbani [1]: 0.5 | Binding of serum 62 to linear peptides of protein M of SARS-CoV Urbani [1]: 0.6 | Binding of serum 62 to looped/cyclic peptides of protein M of SARS-CoV Urbani [1]: 0.6 | Binding of serum London to linear peptides of protein M of SARS-CoV Urbani [1]: 0.4 | Binding of serum London to looped/cyclic peptides of protein M of SARS-CoV Urbani [1]: 0.3 | Binding of serum SARS-green to linear peptides of protein M of SARS-CoV Urbani [1]: 0.3 | Binding of serum SARS-green to looped/cyclic peptides of protein M of SARS-CoV Urbani [1]: 0.3 | Binding of serum SARS-yellow to linear peptides of protein M of SARS-CoV Urbani [1]: 0.1 | Binding of serum SARS-yellow to looped/cyclic peptides of protein M of SARS-CoV Urbani [1]: 0.7 | Binding of Control Serum Blood-Bank to Looped peptides of the protein M of SARS-CoV Urbani [2]: 0.7 | Binding of Control serum Blood-bank to linear peptides of the protein M of SARS-CoV Urbani [2]: 0.6 | Binding of Control serum LUMC to linear peptides of the protein M of SARS-CoV Urbani [2]: 0.2 | Binding of Control serum LUMC to looped peptides of the protein M of SARS-CoV Urbani [2]: 0.6 | Rabbit serum linear peptides [3]: 0.2 | Rabbit serum looped peptides [3]: 0.2

LMESELVIGAVIIRG
Binding of serum 1a to linear peptides of protein M of SARS-CoV Urbani [1]: 0.7 | Binding of serum 1a to looped/cyclic peptides of protein M of SARS-CoV Urbani [1]: 0.6 | Binding of serum 1b to linear peptides of protein M of SARS-CoV Urbani [1]: 0.5 | Binding of serum 1b to looped/cyclic peptides of protein M of SARS-CoV Urbani [1]: 0.6 | Binding of serum 2 to linear peptides of protein M of SARS-CoV Urbani [1]: 0.7 | Binding of serum 2 to looped/cyclic peptides of protein M of SARS-CoV Urbani [1]: 0.5 | Binding of serum 6 to linear peptides of protein M of SARS-CoV Urbani [1]: 0.3 | Binding of serum 6 to looped/cyclic peptides of protein M of SARS-CoV Urbani [1]: 0.4 | Binding of serum 37 to linear peptides of protein M of SARS-CoV Urbani [1]: 0.9 | Binding of serum 37 to looped/cyclic peptides of protein M of SARS-CoV Urbani [1]: 0.6 | Binding of serum 62 to linear peptides of protein M of SARS-CoV Urbani [1]: 0.8 | Binding of serum 62 to looped/cyclic peptides of protein M of SARS-CoV Urbani [1]: 0.6 | Binding of serum London to linear peptides of protein M of SARS-CoV Urbani [1]: 0.3 | Binding of serum London to looped/cyclic peptides of protein M of SARS-CoV Urbani [1]: 0.2 | Binding of serum SARS-green to linear peptides of protein M of SARS-CoV Urbani [1]: 0.3 | Binding of serum SARS-green to looped/cyclic peptides of protein M of SARS-CoV Urbani [1]: 0.3 | Binding of serum SARS-yellow to linear peptides of protein M of SARS-CoV Urbani [1]: 0.1 | Binding of serum SARS-yellow to looped/cyclic peptides of protein M of SARS-CoV Urbani [1]: 0.5 | Binding of Control Serum Blood-Bank to Looped peptides of the protein M of SARS-CoV Urbani [2]: 0.7 | Binding of Control serum Blood-bank to linear peptides of the protein M of SARS-CoV Urbani [2]: 0.8 | Binding of Control serum LUMC to linear peptides of the protein M of SARS-CoV Urbani [2]: 0.5 | Binding of Control serum LUMC to looped peptides of the protein M of SARS-CoV Urbani [2]: 0.6 | Rabbit serum linear peptides [3]: 0.4 | Rabbit serum looped peptides [3]: 0.2

YTQSTALQELLIQQW
Binding of serum 1a to linear peptides of protein X2 [1]: 0.6 | Binding of serum 1a to looped/cyclic peptides of protein X2 of SARS-CoV Urbani [1]: 0.6 | Binding of serum 1b to linear peptides of protein X2 [1]: 0.5 | Binding of serum 1b to looped/cyclic peptides of protein X2 of SARS-CoV Urbani [1]: 0.5 | Binding of serum 2 to linear peptides of protein X2 [1]: 0.4 | Binding of serum 2 to looped/cyclic peptides of protein X2 of SARS-CoV Urbani [1]: 0.5 | Binding of serum 6 to linear peptides of protein X2 [1]: 0.4 | Binding of serum 6 to looped/cyclic peptides of protein X2 of SARS-CoV Urbani [1]: 0.2 | Binding of serum 37 to linear peptides of protein X2 [1]: 0.5 | Binding of serum 37 to looped/cyclic peptides of protein X2 of SARS-CoV Urbani [1]: 0.4 | Binding of serum 62 to linear peptides of protein X2 [1]: 0.6 | Binding of serum 62 to looped/cyclic peptides of protein X2 of SARS-CoV Urbani [1]: 0.6 | Binding of serum London to linear peptides of protein X2 [1]: 0.5 | Binding of serum London to looped/cyclic peptides of protein X2 of SARS-CoV Urbani [1]: 0.2 | Binding of serum SARS-green to linear peptides of protein X2 [1]: 0.6 | Binding of serum SARS-green to looped/cyclic peptides of protein X2 of SARS-CoV Urbani [1]: 0.3 | Binding of serum SARS-yellow to linear peptides of protein X2 [1]: 0.6 | Binding of serum SARS-yellow to looped/cyclic peptides of protein X2 of SARS-CoV Urbani [1]: 0.3 | Binding of Control Serum Blood-Bank to Looped peptides [2]: 0.6 | Binding of Control serum Blood-bank to linear peptides [2]: 0.5 | Binding of Control serum LUMC to linear peptides [2]: 0.4 | Binding of Control serum LUMC to looped peptides [2]: 0.6 | Binding of a rabbit serum to linear peptides [3]: 0.3 | Binding of a rabbit serum to looped peptides [3]: 0.3

STAWLCALGKVLPFH
Binding of serum 1a to linear peptides of protein X5 of SARS-CoV Urbani [1]: 0.8 | Binding of serum 1a to looped/cyclic peptides of protein X5 of SARS-CoV Urbani [1]: 0.6 | Binding of serum 1b to linear peptides of protein X5 of SARS-CoV Urbani [1]: 0.6 | Binding of serum 1b to looped/cyclic peptides of protein X5 of SARS-CoV Urbani [1]: 0.4 | Binding of serum 2 to linear peptides of protein X5 of SARS-CoV Urbani [1]: 0.6 | Binding of serum 2 to looped/cyclic peptides of protein X5 of SARS-CoV Urbani [1]: 0.6 | Binding of serum 6 to linear peptides of protein X5 of SARS-CoV Urbani [1]: 0.7 | Binding of serum 6 to looped/cyclic peptides of protein X5 of SARS-CoV Urbani [1]: 0.5 | Binding of serum 37 to linear peptides of protein X5 of SARS-CoV Urbani [1]: 0.7 | Binding of serum 37 to looped/cyclic peptides of protein X5 of SARS-CoV Urbani [1]: 0.4 | Binding of serum 62 to linear peptides of protein X5 of SARS-CoV Urbani [1]: 0.8 | Binding of serum 62 to looped/cyclic peptides of protein X5 of SARS-CoV Urbani [1]: 0.7 | Binding of serum London to linear peptides of protein X5 of SARS-CoV Urbani [1]: 0.7 | Binding of serum London to looped/cyclic peptides of protein X5 of SARS-CoV Urbani [1]: 0.2 | Binding of serum SARS-green to linear peptides of protein X5 of SARS-CoV Urbani [1]: 0.6 | Binding of serum SARS-green to looped/cyclic peptides of protein X5 of SARS-CoV Urbani [1]: 0.3 | Binding of serum SARS-yellow to linear peptides of protein X5 of SARS-CoV Urbani [1]: 0.3 | Binding of serum SARS-yellow to looped/cyclic peptides of protein X5 of SARS-CoV Urbani [1]: 1.0 | Binding of Control Serum Blood-Bank to Looped peptides [2]: 0.5 | Binding of Control serum Blood-bank to linear peptides [2]: 0.9 | Binding of Control serum LUMC to linear peptides [2]: 0.6 | Binding of Control serum LUMC to looped peptides [2]: 0.6 | Rabbit serum linear peptides [3]: 0.5 | Rabbit serum looped peptides [3]: 0.7
